Data: US8586591B2, “Aminopyrazine derivative and medicine” (Nippon Shinyaku Co., Ltd., priority 2009, dated 2013)
Counter-ions that a name gives are not always drawn.

What was measured:
JAK3 tyrosine kinase = target: T1, JAK3 tyrosine kinase (Homo sapiens, UniProt P52333); experiment: Test 1: inhibitory activity to JAK3 tyrosine kinase (ELISA); assay type: biochemical; conditions: 25 μM ATP in substrate solution, 30° C. for 1 hour, n=2
T1 construct: purchased Carnabioscience Co
T1 sequence (P52333 1-1124): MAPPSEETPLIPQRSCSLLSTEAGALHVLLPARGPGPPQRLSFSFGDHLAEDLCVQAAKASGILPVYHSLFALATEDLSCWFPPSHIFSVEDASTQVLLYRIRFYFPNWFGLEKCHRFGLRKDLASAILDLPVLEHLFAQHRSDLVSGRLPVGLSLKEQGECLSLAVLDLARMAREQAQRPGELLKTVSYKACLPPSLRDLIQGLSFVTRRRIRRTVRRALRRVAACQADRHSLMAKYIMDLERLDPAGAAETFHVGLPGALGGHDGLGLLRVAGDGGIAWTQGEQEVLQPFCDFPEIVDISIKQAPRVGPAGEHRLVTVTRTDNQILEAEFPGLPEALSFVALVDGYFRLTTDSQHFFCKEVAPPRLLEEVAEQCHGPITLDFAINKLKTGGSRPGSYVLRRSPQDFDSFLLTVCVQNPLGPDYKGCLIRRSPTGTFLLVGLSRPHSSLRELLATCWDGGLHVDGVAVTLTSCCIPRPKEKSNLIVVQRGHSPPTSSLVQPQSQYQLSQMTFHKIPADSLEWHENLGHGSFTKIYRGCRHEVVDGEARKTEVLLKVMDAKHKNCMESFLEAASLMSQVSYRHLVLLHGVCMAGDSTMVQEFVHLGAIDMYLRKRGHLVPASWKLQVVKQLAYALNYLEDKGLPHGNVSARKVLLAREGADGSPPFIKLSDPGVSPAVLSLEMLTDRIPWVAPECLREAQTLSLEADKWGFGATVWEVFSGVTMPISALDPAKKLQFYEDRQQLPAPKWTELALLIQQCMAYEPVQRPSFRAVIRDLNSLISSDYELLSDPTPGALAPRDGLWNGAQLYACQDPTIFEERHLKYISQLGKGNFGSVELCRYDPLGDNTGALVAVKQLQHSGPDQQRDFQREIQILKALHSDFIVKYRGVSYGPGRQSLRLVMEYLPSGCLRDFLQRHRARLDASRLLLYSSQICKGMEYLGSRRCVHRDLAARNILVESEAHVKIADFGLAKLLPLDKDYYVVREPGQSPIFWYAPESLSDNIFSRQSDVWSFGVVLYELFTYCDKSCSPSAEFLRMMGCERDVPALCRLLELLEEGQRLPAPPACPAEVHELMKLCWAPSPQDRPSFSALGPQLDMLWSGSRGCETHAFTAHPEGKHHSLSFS
Procedure, shortened: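 ELISA of JAK3 kinase activity with absorbance read at 450 nm. Compounds were tested from DMSO dilution series at 100-fold the measurement concentrations (1000–0.01 μM), diluted up to 20 times in assay buffer, against a DMSO negative control. IC50 was estimated by non-linear regression of absorbance.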

JAK2 tyrosine kinase = target: T2, JAK2 tyrosine kinase (Homo sapiens, UniProt O60674); experiment: Test 1: inhibitory activity to JAK2 tyrosine kinase (ELISA); assay type: biochemical; conditions: 25 μM ATP in substrate solution, 30° C. for 1 hour, n=2
T2 construct: purchased Carnabioscience Co
T2 sequence (O60674 whole entry): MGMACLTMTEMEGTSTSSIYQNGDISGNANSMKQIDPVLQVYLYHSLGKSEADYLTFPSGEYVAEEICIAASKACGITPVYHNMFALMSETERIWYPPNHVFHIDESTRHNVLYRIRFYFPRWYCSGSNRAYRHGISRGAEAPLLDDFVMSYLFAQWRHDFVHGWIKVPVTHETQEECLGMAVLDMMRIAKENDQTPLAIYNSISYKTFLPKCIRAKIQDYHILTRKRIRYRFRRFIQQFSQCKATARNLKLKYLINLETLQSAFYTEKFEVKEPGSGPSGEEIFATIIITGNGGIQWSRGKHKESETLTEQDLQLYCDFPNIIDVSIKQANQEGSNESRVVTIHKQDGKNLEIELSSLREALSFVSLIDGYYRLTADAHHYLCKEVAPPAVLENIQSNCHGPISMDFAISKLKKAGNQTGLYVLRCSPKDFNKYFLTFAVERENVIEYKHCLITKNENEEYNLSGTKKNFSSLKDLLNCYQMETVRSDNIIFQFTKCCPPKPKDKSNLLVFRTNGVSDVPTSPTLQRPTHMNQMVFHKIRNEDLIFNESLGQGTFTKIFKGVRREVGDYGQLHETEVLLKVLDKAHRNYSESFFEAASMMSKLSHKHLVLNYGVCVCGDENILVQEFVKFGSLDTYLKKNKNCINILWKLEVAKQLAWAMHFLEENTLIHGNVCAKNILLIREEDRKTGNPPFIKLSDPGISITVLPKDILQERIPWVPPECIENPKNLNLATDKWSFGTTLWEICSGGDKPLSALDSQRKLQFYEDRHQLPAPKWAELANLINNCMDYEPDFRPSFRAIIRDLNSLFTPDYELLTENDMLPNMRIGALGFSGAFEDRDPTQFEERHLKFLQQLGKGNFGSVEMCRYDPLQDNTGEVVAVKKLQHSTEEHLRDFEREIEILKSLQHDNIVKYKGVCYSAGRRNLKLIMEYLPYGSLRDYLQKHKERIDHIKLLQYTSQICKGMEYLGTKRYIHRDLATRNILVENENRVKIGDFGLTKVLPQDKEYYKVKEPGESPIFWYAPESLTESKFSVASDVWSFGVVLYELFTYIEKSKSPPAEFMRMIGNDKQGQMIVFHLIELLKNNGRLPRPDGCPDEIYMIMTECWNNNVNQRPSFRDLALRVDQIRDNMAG
Procedure, shortened: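 Human JAK2 (diluted to 0.75 nM before addition) phosphorylated a biotinylated peptide on streptavidin plates for 1 h at 30 °C. The substrate mix held 625 nM peptide, 25 μM ATP and 25 mM MgCl2 in 15 mM Tris pH 7.5, 0.01% Tween-20 and 1 mM DTT. Phosphotyrosine was detected by HRP antibody/TMB at 450 nm, and IC50 was obtained by non-linear regression; duplicates were run.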

SMILES: C[C@H](Nc1cc(-c2ccoc2)cc(Nc2cnccn2)n1)c1ccc(F)cc1 [Example 123, (S)—N^2-[1-(4-Fluorophenyl)ethyl]-4-(furan-3-yl)-N^6-(pyrazin-2-yl)pyridine-2,6-diamine]
- IC50 (JAK3 tyrosine kinase): 0.33 µM
- IC50 (JAK2 tyrosine kinase): 0.0054 µM

SMILES: C[C@H](Nc1nc(Nc2cnccn2)cc(OCCN(C)C)n1)c1ccc(F)cc1 [Example 89, (S)-6-[2-(Dimethylamino)ethoxy]-N^2-[1-(4-fluorophenyl)ethyl]-N^4-(pyrazin-2-yl)pyrimidine-2,4-diamine dihydrochloride]
- IC50 (JAK3 tyrosine kinase): 0.15 µM
- IC50 (JAK2 tyrosine kinase): 0.0038 µM

SMILES: C[C@H](Nc1cc(-c2ccc(C(N)=O)cc2)cc(Nc2cnccn2)n1)c1ccc(F)cc1 [Example 115, (S)-4-{2-[1-(4-Fluorophenyl)ethylamino]-6-(pyrazin-2-ylamino)pyridin-4-yl}benzamide dihydrochloride]
- IC50 (JAK3 tyrosine kinase): 0.21 µM
- IC50 (JAK2 tyrosine kinase): 0.0023 µM

SMILES: C[C@H](Nc1nc(NCC(N)=O)cc(Nc2cnccn2)n1)c1ccc(F)cc1 [Example 79, (S)-2-{2-[1-(4-Fluorophenyl)ethylamino]-6-(pyrazin-2-ylamino)pyrimidin-4-ylamino}acetamide hydrochloride]
- IC50 (JAK3 tyrosine kinase): 0.14 µM
- IC50 (JAK2 tyrosine kinase): 0.0043 µM

SMILES: C[C@H](Nc1nc(Nc2cnccn2)cc(N2CC(C(=O)N3CCCCC3)C2)n1)c1ccc(F)cc1 [Example 195, (S)-(1-{2-[1-(4-Fluorophenyl)ethylamino]-6-(pyrazin-2-ylamino)pyrimidin-4-yl}azetidin-3-yl)(piperidin-1-yl)methanone]
- IC50 (JAK3 tyrosine kinase): 0.05 µM
- IC50 (JAK2 tyrosine kinase): 0.0012 µM

SMILES: C[C@H](Nc1nc(Nc2cnccn2)cc(-c2cccc(C(N)=O)c2)n1)c1ccc(F)cc1 [Example 91]
- IC50 (JAK3 tyrosine kinase): 0.097 µM
- IC50 (JAK2 tyrosine kinase): 0.0014 µM

SMILES: C[C@H](Nc1nc(Nc2cnccn2)cc(-c2cnco2)n1)c1ccc(F)cc1 [Example 22, (S)—N^2-[1-(4-Fluorophenyl)ethyl]-6-(oxazol-5-yl)-N^4-(pyrazin-2-yl)pyrimidine-2,4-diamine hydrochloride]
- IC50 (JAK3 tyrosine kinase): 0.088 µM
- IC50 (JAK2 tyrosine kinase): 0.0016 µM

SMILES: C[C@H](Nc1nc(Nc2cnccn2)cc(-c2cncc(C#N)c2)n1)c1ccc(F)cc1 [Example 74, (S)-5-{2-[1-(4-Fluorophenyl)ethylamino]-6-(pyrazin-2-ylamino)pyrimidin-4-yl}nicotinonitrile]
- IC50 (JAK3 tyrosine kinase): 0.23 µM
- IC50 (JAK2 tyrosine kinase): 0.0038 µM

SMILES: C[C@H](Nc1nc(Nc2cnccn2)cc(-c2cccc(C#N)c2)n1)c1ccc(F)cc1 [Example 81, (S)-3-{2-[1-(4-Fluorophenyl)ethylamino]-6-(pyrazin-2-ylamino)pyrimidin-4-yl}benzonitrile]
- IC50 (JAK3 tyrosine kinase): 0.48 µM
- IC50 (JAK2 tyrosine kinase): 0.0056 µM

SMILES: C[C@H](Nc1cc(OCCO)cc(Nc2cnccn2)n1)c1ccc(F)cc1 [Example 12, (S)-2-{2-[1-(4-Fluorophenyl)ethylamino]-6-(pyrazin-2-ylamino)pyridin-4-yloxy}ethanol hydrochloride]
- IC50 (JAK3 tyrosine kinase): 0.079 µM
- IC50 (JAK2 tyrosine kinase): 0.00092 µM

SMILES: C[C@H](Nc1nc(Nc2cnccn2)cc(-c2cc[nH]c2)n1)c1ccc(F)cc1 [Example 66, (S)—N^2-[1-(4-Fluorophenyl)ethyl]-N^4-(pyrazin-2-yl)-6-(1H-pyrrol-3-yl)pyrimidine-2,4-diamine]
- IC50 (JAK3 tyrosine kinase): 0.037 µM
- IC50 (JAK2 tyrosine kinase): 0.0018 µM

SMILES: CCOCCNC(=O)c1cc(Nc2cnccn2)nc(N[C@@H](C)c2ccc(F)cc2)c1 [Example 173, (S)—N-(2-Ethoxyethyl)-2-[1-(4-fluorophenyl)ethylamino]-6-(pyrazin-2-ylamino)isonicotinamide]
- IC50 (JAK3 tyrosine kinase): 0.2 µM
- IC50 (JAK2 tyrosine kinase): 0.0015 µM

SMILES: CC(C)C[C@H](CO)Nc1cc(Nc2cnccn2)nc(N[C@@H](C)c2ccc(F)cc2)n1 [Example 88, (R)-2-{2-[(S)-1-(4-Fluorophenyl)ethylamino]-6-(pyrazin-2-ylamino)pyrimidin-4-ylamino}-4-methylpentan-1-ol]
- IC50 (JAK3 tyrosine kinase): 0.2 µM
- IC50 (JAK2 tyrosine kinase): 0.013 µM

SMILES: C[C@H](Nc1cc(-c2cnn(Cc3ccccc3)c2)cc(Nc2cnccn2)n1)c1ccc(F)cc1 [Example 113, (S)-4-(1-Benzyl-1H-pyrazol-4-yl)-N^2-[1-(4-fluorophenyl)ethyl]-N^6-(pyrazin-2-yl)pyridine-2,6-diamine]
- IC50 (JAK3 tyrosine kinase): 0.2 µM
- IC50 (JAK2 tyrosine kinase): 0.0049 µM

SMILES: C[C@H](Nc1cc(-c2ccc(S(C)(=O)=O)cc2)cc(Nc2cnccn2)n1)c1ccc(F)cc1 [Example 36, (S)—N^2-[1-(4-Fluorophenyl)ethyl]-4-[4-(methylsulfonyl)phenyl]-N^6-(pyrazin-2-yl)pyridine-2,6-diamine hydrochloride]
- IC50 (JAK3 tyrosine kinase): 0.2 µM
- IC50 (JAK2 tyrosine kinase): 0.0028 µM

SMILES: C[C@H](Nc1nc(Nc2cnccn2)cc(N[C@H](CO)Cc2ccccc2)n1)c1ccc(F)cc1 [Example 87, (S)-2-{2-[(S)-1-(4-Fluorophenyl)ethylamino]-6-(pyrazin-2-ylamino)pyrimidin-4-ylamino}-3-phenylpropan-1-ol]
- IC50 (JAK3 tyrosine kinase): 0.45 µM
- IC50 (JAK2 tyrosine kinase): 0.014 µM

SMILES: CCS(=O)(=O)NC1CN(c2cc(Nc3cnccn3)nc(N[C@@H](C)c3ccc(F)cc3)n2)C1 [Example 190, (S)—N-(1-{2-[1-(4-Fluorophenyl)ethylamino]-6-(pyrazin-2-ylamino)pyrimidin-4-yl}azetidin-3-yl)ethanesulfonamide]
- IC50 (JAK3 tyrosine kinase): 0.058 µM
- IC50 (JAK2 tyrosine kinase): 0.0012 µM

SMILES: C[C@H](Nc1nc(NCCN)cc(Nc2cnccn2)n1)c1ccc(F)cc1 [Example 76, (S)—N^4-(2-Aminoethyl)-N^2-[1-(4-fluorophenyl)ethyl]-N^6-(pyrazin-2-yl)pyrimidine-2,4,6-triamine dihydrochloride]
- IC50 (JAK3 tyrosine kinase): 0.057 µM
- IC50 (JAK2 tyrosine kinase): 0.0025 µM

SMILES: CCN(CC)C(=O)C1CN(c2cc(Nc3cnccn3)nc(N[C@@H](C)c3ccc(F)cc3)n2)C1 [Example 181, (S)—N,N-Diethyl-1-{2-[1-(4-fluorophenyl)ethylamino]-6-(pyrazin-2-ylamino)pyrimidin-4-yl}azetidine-3-carboxamide]
- IC50 (JAK3 tyrosine kinase): 0.056 µM
- IC50 (JAK2 tyrosine kinase): 0.0022 µM

SMILES: C[C@H](Nc1cc(N2CCC(O)(CO)CC2)cc(Nc2cnccn2)n1)c1ccc(F)cc1 [Example 125, (S)-1-{2-[1-(4-Fluorophenyl)ethylamino]-6-(pyrazin-2-ylamino)pyridin-4-yl}-4-(hydroxymethyl)piperidin-4-ol]
- IC50 (JAK3 tyrosine kinase): 0.13 µM
- IC50 (JAK2 tyrosine kinase): 0.0016 µM

SMILES: CC(Nc1cc(Nc2cnccn2)nc(N[C@@H](C)c2ccc(F)cc2)n1)c1cccnc1 (stereo partly drawn) [Example 104, (S)—N^2-[1-(4-Fluorophenyl)ethyl]-N^4-(pyrazin-2-yl)-N^6-[1-(pyridin-3-yl)ethyl]pyrimidine-2,4,6-triamine]
- IC50 (JAK3 tyrosine kinase): 0.039 µM
- IC50 (JAK2 tyrosine kinase): 0.001 µM

SMILES: C[C@H](Nc1cc(N2CC(O)(C3CC3)C2)cc(Nc2cnccn2)n1)c1ccc(F)cc1 [Example 203, (S)-3-Cyclopropyl-1-{2-[1-(4-fluorophenyl)ethylamino]-6-(pyrazin-2-ylamino)pyridin-4-yl}azetidin-3-ol hydrochloride]
- IC50 (JAK3 tyrosine kinase): 0.12 µM
- IC50 (JAK2 tyrosine kinase): 0.0045 µM

SMILES: CNC1CN(c2cc(Nc3cnccn3)nc(N[C@@H](C)c3ccc(F)cc3)n2)C1 [Example 221, (S)—N^2-[1-(4-Fluorophenyl)ethyl]-6-[3-(methylamino)azetidin-1-yl]-N^4-(pyrazin-2-yl)pyrimidine-2,4-diamine]
- IC50 (JAK3 tyrosine kinase): 0.059 µM
- IC50 (JAK2 tyrosine kinase): 0.0015 µM

SMILES: C[C@H](Nc1nc(Nc2cnccn2)cc(-c2ccc(O)nc2)n1)c1ccc(F)cc1 [Example 26, (S)-5-{2-[1-(4-Fluorophenyl)ethylamino]-6-(pyrazin-2-ylamino)pyrimidin-4-yl}pyridin-2-ol]
- IC50 (JAK3 tyrosine kinase): 0.028 µM
- IC50 (JAK2 tyrosine kinase): 0.00027 µM

SMILES: C[C@H](Nc1nc(Nc2cnccn2)cc(-c2nn[nH]n2)n1)c1ccc(F)cc1 [Example 75, (S)—N^2-[1-(4-Fluorophenyl)ethyl]-N^4-(pyrazin-2-yl)-6-(2H-tetrazol-5-yl)pyrimidine-2,4-diamine]
- IC50 (JAK3 tyrosine kinase): 0.63 µM
- IC50 (JAK2 tyrosine kinase): 0.012 µM

SMILES: C[C@H](Nc1nc(Nc2cnccn2)cc(-c2nccs2)n1)c1ccc(F)cc1 [Example 54, (S)—N^2-[1-(4-Fluorophenyl)ethyl]-N^4-(pyrazin-2-yl)-6-(thiazol-2-yl)pyrimidine-2,4-diamine]
- IC50 (JAK3 tyrosine kinase): 1.8 µM
- IC50 (JAK2 tyrosine kinase): 0.022 µM
